Series [1] is described as follows: rat microsomal stability (RLM). Particulars: microsomal stability half-life.
The next series concerns the target recombinant human GALK1 (Homo sapiens, UniProt P51570). Briefly: hGALK1 biochemical activity assay (Kinase-Glo Plus, ATP depletion). The procedure, abridged:
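Recombinant human or mouse GALK1 (5 nM, with 100 μM galactose, in the added enzyme solution) was run with ATP (35 μM in the substrate solution) in HEPES pH 8.0 buffer. Compounds were tested at 11 1/3-step concentrations from 57.4 μM to 0.97 nM. After 1 h at room temperature, remaining ATP was read by Kinase-Glo Plus luminescence.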

A short description of another series: PAMPA permeability. The settings on record: PAMPA. (PAMPA measures passive passage across an artificial lipid membrane.)
The target in another series is recombinant mouse GALK1 (Mus musculus, UniProt Q9R0N0). Briefly: mGALK1 biochemical activity assay (Kinase-Glo Plus, ATP depletion). The procedure, abridged:
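Recombinant GALK1 (5 nM) with 100 μM galactose; GALK1 turnover read as ATP depletion by Kinase-Glo Plus luminescence. Reaction ran 1 h at room temperature before detection reagent was added.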
On the technique in general: Kinase-Glo reads ATP consumption through a luciferase reaction.

Series [2] can be described thus: aqueous kinetic solubility. Particulars: aqueous kinetic solubility.
[3] abbreviates: Tables 2-15, 35 μM ATP, 100 μM galactose, 1 h, bracketed figure after some values (e.g. −1.2) is undefined and not reported, read-out: hGALK IC50.
[4] abbreviates: recombinant human GALK1, Kinase-Glo Plus ATP depletion, read-out: hGALK.
Setting [5] is: Tables 2-15, 35 μM ATP, 100 μM galactose, 1 h, bracketed figure after some values is undefined and not reported, read-out: mGALK IC50.
Where [6] appears, read: recombinant mouse GALK1, Kinase-Glo Plus ATP depletion, read-out: mGALK.
The mark [7] stands for this setting: recombinant human GALK1, Kinase-Glo Plus ATP depletion, bracketed figure in the cell, e.g. (−1.2), is not defined in the text shown, read-out: hGALK.
The mark [8] stands for this setting: recombinant mouse GALK1, Kinase-Glo Plus ATP depletion, bracketed figure in the cell, e.g. (−1.2), is not defined in the text shown, read-out: mGALK.

Like-named read-outs stand apart in the source and are kept apart here. Some results are limits rather than exact numbers.

Sequence of recombinant mouse GALK1 (Q9R0N0 whole entry): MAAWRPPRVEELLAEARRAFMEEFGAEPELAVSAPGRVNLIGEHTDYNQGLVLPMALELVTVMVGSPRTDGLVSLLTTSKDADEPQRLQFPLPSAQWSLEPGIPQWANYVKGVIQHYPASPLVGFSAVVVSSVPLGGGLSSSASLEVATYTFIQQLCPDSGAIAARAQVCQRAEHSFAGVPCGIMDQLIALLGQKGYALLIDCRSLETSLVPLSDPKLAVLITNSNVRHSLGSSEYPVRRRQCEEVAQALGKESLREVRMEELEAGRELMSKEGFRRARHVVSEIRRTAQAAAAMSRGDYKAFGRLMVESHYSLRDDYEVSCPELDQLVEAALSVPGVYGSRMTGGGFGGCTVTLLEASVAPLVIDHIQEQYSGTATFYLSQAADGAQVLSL
Sequence of recombinant human GALK1 (P51570 whole entry): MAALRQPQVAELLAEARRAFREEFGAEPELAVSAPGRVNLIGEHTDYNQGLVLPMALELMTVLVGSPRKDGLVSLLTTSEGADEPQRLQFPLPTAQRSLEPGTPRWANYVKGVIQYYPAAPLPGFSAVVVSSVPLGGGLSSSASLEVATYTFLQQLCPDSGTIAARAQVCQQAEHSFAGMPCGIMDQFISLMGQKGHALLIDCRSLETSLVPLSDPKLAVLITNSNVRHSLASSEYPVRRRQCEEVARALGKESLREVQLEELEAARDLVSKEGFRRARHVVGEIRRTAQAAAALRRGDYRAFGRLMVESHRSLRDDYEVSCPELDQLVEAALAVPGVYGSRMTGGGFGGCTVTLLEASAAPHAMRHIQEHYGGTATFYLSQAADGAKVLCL

As for `COC(=O)c1ccc(CNC(=O)C2=C(C)NC(Nc3nc4ccccc4o3)=NC2c2ccccc2Cl)cc1` (stereo not drawn) [Compound 223, methyl 4-((2-(benzo[d]oxazol-2-ylamino)-4-(2-chlorophenyl)-6-methyl-1,4-dihydropyrimidine-5-carboxamido)methyl)benzoate], the “Metab. Stabil. (m)” value in series [1] is recorded as 8.495 m. The IC50 on recombinant human GALK1 (setting [3]) is 4.32 µM; at recombinant human GALK1 (setting [4]) it was 4.32 µM; on recombinant mouse GALK1 (setting [5]), 8.63 µM; on recombinant mouse GALK1 (setting [6]) it was 8.63 µM. Further, the “Perm. (1 × 10^−6 cm/sec)” value in “PAMPA permeability” is 543.4 1 × 10^−6 cm/sec. Moreover, in series [2], the “Sol.” value was less than 1 µg/mL.
`COC(=O)c1cccc(CNC(=O)C2=C(C)NC(Nc3nc4ccccc4o3)=NC2c2ccccc2Cl)c1` (stereo not drawn) [Compound 224, methyl 3-((2-(benzo[d]oxazol-2-ylamino)-4-(2-chlorophenyl)-6-methyl-1,4-dihydropyrimidine-5-carboxamido)methyl)benzoate]: the “Metab. Stabil. (m)” value in series [1] is 3.416 m. In addition, the IC50 at recombinant human GALK1 (setting [3]) was 4.85 µM; on recombinant human GALK1 (setting [4]), 4.85 µM; at recombinant mouse GALK1 (setting [5]), 7.69 µM; on recombinant mouse GALK1 (setting [6]) it was 7.69 µM. The “Perm. (1 × 10^−6 cm/sec)” value in “PAMPA permeability” is 615.7 1 × 10^−6 cm/sec. The “Sol.” value in series [2] is less than 1 µg/mL.
On to `CC1=C(C(=O)NCc2ccc(C(=O)O)cc2)C(c2ccccc2Cl)N=C(Nc2nc3ccccc3o2)N1` (stereo not drawn) [Compound 225, 4-((2-(benzo[d]oxazol-2-ylamino)-4-(2-chlorophenyl)-6-methyl-1,4-dihydropyrimidine-5-carboxamido)methyl)benzoic acid], for which, in series [1], the “Metab. Stabil. (m)” value was more than 30 m. The results for the IC50 at recombinant human GALK1 (setting [3]), at recombinant mouse GALK1 (setting [5]) and at recombinant mouse GALK1 (setting [6]) were 3.43 µM, 10.9 µM and 10.9 µM, respectively. For the same compound, the “Perm. (1 × 10^−6 cm/sec)” value in the series “PAMPA permeability” is recorded as <1 1 × 10^−6 cm/sec. For the same compound, the “Sol.” value in series [2] worked out at 47.0 µg/mL.
Regarding `CC1=C(C(=O)NCc2cccc(C(=O)O)c2)C(c2ccccc2Cl)N=C(Nc2nc3ccccc3o2)N1` (stereo not drawn) [Compound 226, 3-((2-(benzo[d]oxazol-2-ylamino)-4-(2-chlorophenyl)-6-methyl-1,4-dihydropyrimidine-5-carboxamido)methyl)benzoic acid], in series [1], the “Metab. Stabil. (m)” value was more than 30 m. For the same compound, the IC50 at recombinant human GALK1 (setting [4]) is 7.69 µM; on recombinant mouse GALK1 (setting [6]), 19.3 µM. Moreover, the “Perm. (1 × 10^−6 cm/sec)” value in “PAMPA permeability” was <1.3 1 × 10^−6 cm/sec. Besides, the “Sol.” value in series [2] was 60.6 µg/mL.
Turning to `CC1=C(C(=O)NCc2cccc(CO)c2)C(c2ccccc2Cl)N=C(Nc2nc3ccccc3o2)N1` (stereo not drawn) [Compound 227, 2-(benzo[d]oxazol-2-ylamino)-4-(2-chlorophenyl)-N-(3-(hydroxymethyl)benzyl)-6-methyl-1,4-dihydropyrimidine-5-carboxamide], in series [1], the “Metab. Stabil. (m)” value came to 6.574 m. Further, the IC50 at recombinant human GALK1 (setting [4]) was determined as 4.85 µM; on recombinant mouse GALK1 (setting [5]), 12.2 µM; on recombinant mouse GALK1 (setting [6]), 12.2 µM. In “PAMPA permeability”, the “Perm. (1 × 10^−6 cm/sec)” value was 868.8 1 × 10^−6 cm/sec. Further, in series [2], the “Sol.” value is less than 1 µg/mL.
Turning to `CC1=C(C(=O)NCc2ccc(CO)cc2)C(c2ccccc2Cl)N=C(Nc2nc3ccccc3o2)N1` (stereo not drawn) [Compound 228, 2-(benzo[d]oxazol-2-ylamino)-4-(2-chlorophenyl)-N-(4-(hydroxymethyl)benzyl)-6-methyl-1,4-dihydropyrimidine-5-carboxamide], the “Metab. Stabil. (m)” value in series [1] was 13.8241 m. Moreover, the IC50 on recombinant human GALK1 (setting [3]) worked out at 6.85 µM; on recombinant mouse GALK1 (setting [5]) it was 15.3 µM; at recombinant mouse GALK1 (setting [6]), 15.3 µM. For the same compound, the “Perm. (1 × 10^−6 cm/sec)” value in the series “PAMPA permeability” is listed as 867.3 1 × 10^−6 cm/sec. Also, the “Sol.” value in series [2] is less than 1 µg/mL.
For `CC1=C(C(=O)NCc2ccccc2CO)C(c2ccccc2Cl)N=C(Nc2nc3ccccc3o2)N1` (stereo not drawn) [Compound 229, 2-(benzo[d]oxazol-2-ylamino)-4-(2-chlorophenyl)-N-(2-(hydroxymethyl)benzyl)-6-methyl-1,4-dihydropyrimidine-5-carboxamide], the “Metab. Stabil. (m)” value in series [1] turned out to be 5.0859 m. The IC50 turned out to be 6.11 µM on recombinant human GALK1 (setting [3]), 15.3 µM at recombinant mouse GALK1 (setting [5]) and 15.3 µM at recombinant mouse GALK1 (setting [6]). Further, in “PAMPA permeability”, the “Perm. (1 × 10^−6 cm/sec)” value is 1362.3 1 × 10^−6 cm/sec. The “Sol.” value in series [2] was less than 1 µg/mL.
As to `CC1=C(C(=O)NCc2cn(C)cn2)[C@H](c2ccccc2Cl)N=C(Nc2nc3ccccc3o2)N1` [Compound 235, (R)-2-(benzo[d]oxazol-2-ylamino)-4-(2-chlorophenyl)-6-methyl-N-((1-methyl-1H-imidazol-4-yl)methyl)-1,4-dihydropyrimidine-5-carboxamide], the “Metab. Stabil. (m)” value in series [1] worked out at 5.621 m. The IC50 on recombinant human GALK1 (setting [3]) amounted to 3.06 µM; on recombinant human GALK1 (setting [4]), 3.06 µM; on recombinant mouse GALK1 (setting [5]), 4.32 µM; on recombinant mouse GALK1 (setting [6]), 4.32 µM. Also, the “Perm. (1 × 10^−6 cm/sec)” value in “PAMPA permeability” is on record as 866.5 1 × 10^−6 cm/sec. Besides, in series [2], the “Sol.” value came out at 46.1 µg/mL.
For the compound `CC1=C(C(=O)NCCN(C)C)C(c2ccccc2Cl)N=C(Nc2nc3ccccc3o2)N1` (stereo not drawn) [Compound 237], in series [1], the “Metab. Stabil. (m)” value is reported as more than 30 m. The IC50 at recombinant human GALK1 (setting [3]) was found to be 19.3 µM; on recombinant human GALK1 (setting [4]) it was 19.3 µM; on recombinant mouse GALK1 (setting [5]), 15.3 µM; at recombinant mouse GALK1 (setting [6]) it was 15.3 µM. Further, the “Perm. (1 × 10^−6 cm/sec)” value in the series “PAMPA permeability” was >1227 1 × 10^−6 cm/sec. In addition, in series [2], the “Sol.” value is more than 67 µg/mL.
In the case of `CC1=C(C(=O)NCc2cnn(C)c2)C(c2ccccc2Cl)N=C(Nc2nc3ccccc3o2)N1` (stereo not drawn) [Compound 238, 2-(benzo[d]oxazol-2-ylamino)-4-(2-chlorophenyl)-6-methyl-N-((1-methyl-1H-pyrazol-4-yl)methyl)-1,4-dihydropyrimidine-5-carboxamide], the “Metab. Stabil. (m)” value in series [1] came out at 15.67 m. For the same compound, the IC50 on recombinant human GALK1 (setting [3]) worked out at 1.37 µM; at recombinant mouse GALK1 (setting [5]) it was 12.2 µM; on recombinant mouse GALK1 (setting [6]) it was 12.2 µM. Also, in “PAMPA permeability”, the “Perm. (1 × 10^−6 cm/sec)” value was 807.7 1 × 10^−6 cm/sec. Also, the “Sol.” value in series [2] amounted to 24.2 µg/mL.
Regarding `CC1=C(S(C)(=O)=O)C(c2ccccc2Cl)N=C(Nc2nc3ccccc3o2)N1` (stereo not drawn) [Compound 243, N-(4-(2-chlorophenyl)-6-methyl-5-(methylsulfonyl)-1,4-dihydropyrimidin-2-yl)benzo[d]oxazol-2-amine], in series [1], the “Metab. Stabil. (m)” value was found to be 9.37 m. For the same compound, the IC50 was determined as 13.7 µM at recombinant human GALK1 (setting [4]) and 19.3 µM on recombinant mouse GALK1 (setting [6]). For the same compound, the “Perm. (1 × 10^−6 cm/sec)” value in the series “PAMPA permeability” is listed as 42.78 1 × 10^−6 cm/sec. For the same compound, in series [2], the “Sol.” value was less than 1 µg/mL.
For `O/N=C1\CCCC2=C1C(c1ccccc1Cl)N=C(Nc1nc3ccccc3o1)N2` (stereo not drawn) [Compound 244, (E)-2-(benzo[d]oxazol-2-ylamino)-4-(2-chlorophenyl)-4,6,7,8-tetrahydroquinazolin-5(1H)-one oxime], the “Metab. Stabil. (m)” value in series [1] (minutes) was determined as 5.48 m. For the same compound, the IC50 is 17.2 µM on recombinant human GALK1 (setting [7]) and 10.9 µM on recombinant mouse GALK1 (setting [8]). In addition, the “Perm. (1 × 10^−6 cm/sec)” value in the series “PAMPA permeability” is listed as 244.29 1 × 10^−6 cm/sec. In addition, in series [2], the “Sol.” value was less than 1 µg/mL.
The matching figures for `O=C(Nc1nncs1)C1=C(C(F)(F)F)NC(Nc2nc3ccccc3o2)=NC1c1ccccc1Cl` (stereo not drawn) [Compound 246, 2-(benzo[d]oxazol-2-ylamino)-4-(2-chlorophenyl)-N-(1,3,4-thiadiazol-2-yl)-6-(trifluoromethyl)-1,4-dihydropyrimidine-5-carboxamide]: more than 30 m, 13.7 µM, 17.2 µM, 715.1 1 × 10^−6 cm/sec and 21.9 µg/mL.
For `CC(C)CC1=C(C(=O)Nc2nncs2)C(c2ccccc2Cl)N=C(Nc2nc3ccccc3o2)N1` (stereo not drawn) [Compound 248, 2-(benzo[d]oxazol-2-ylamino)-4-(2-chlorophenyl)-6-isobutyl-N-(1,3,4-thiadiazol-2-yl)-1,4-dihydropyrimidine-5-carboxamide] the same measures were more than 30 m, 5.44 µM, 17.2 µM, 42.7 1 × 10^−6 cm/sec and less than 1 µg/mL.
The matching figures for `O=C(Nc1nncs1)C1=C(c2cnccn2)NC(Nc2nc3ccccc3o2)=NC1c1ccccc1Cl` (stereo not drawn) [Compound 249, 2-(benzo[d]oxazol-2-ylamino)-4-(2-chlorophenyl)-6-(pyrazin-2-yl)-N-(1,3,4-thiadiazol-2-yl)-1,4-dihydropyrimidine-5-carboxamide]: more than 30 m, 3.85 µM, 21.7 µM, 60.3 1 × 10^−6 cm/sec and 2.1 µg/mL.
For `CC(C)C1=C(C(=O)Nc2nncs2)C(c2ccccc2Cl)N=C(Nc2nc3ccccc3o2)N1` (stereo not drawn) [Compound 250, 2-(benzo[d]oxazol-2-ylamino)-4-(2-chlorophenyl)-6-isopropyl-N-(1,3,4-thiadiazol-2-yl)-1,4-dihydropyrimidine-5-carboxamide], in series [1] (minutes), the “Metab. Stabil. (m)” value was more than 30 m. In addition, the IC50 on recombinant human GALK1 (setting [7]) amounted to 7.69 µM; at recombinant mouse GALK1 (setting [8]) it was 15.3 µM. Further, the “Perm. (1 × 10^−6 cm/sec)” value in the series “PAMPA permeability” is on record as 24.6 1 × 10^−6 cm/sec. Moreover, the “Sol.” value in series [2] was less than 1 µg/mL.
